Data set [1] relates to Harlan Sprague Dawley rats. The data set can be described thus: Onset of puberty in F1-F3 generation after F0 gestational exposure. In kind it is in vivo, rat. An excerpt:
At proestrus as determined by daily vaginal smears, the female rats, (90 days) were pair-mated with male rats (120 days). On the next day, the females were separated and their vaginal smears were examined microscopically and if they were sperm-positive (day 0) the rats were tentatively considered pregnant and then weighed with a digital animal weighing balance to monitor increases in body weight. Vaginal smears were continued for monitoring diestrus status in these rats until day 7. […] These pregnant rats were then given daily intraperitoneal injections of any one of the following single chemicals or mixtures with an equal volume of sesame oil (Sigma) on days E-8 through E-14 of gestation. Treatment groups were Control, Pesticide (Permethrin+DEET), Plastics (Bisphenol-A, DBP and DEHP), Dioxin (TCDD), and Jet Fuel (JP8 hydrocarbon). The pregnant female rats treated with various mixtures were designated as the F0 generation. When there was a drop in the litter size and the sex ratio of pups in F1 generation of Plastics group, another treatment group was included with only half the dose of Bisphenol-A, DBP and DEHP and this group was designated ‘Low Dose Plastics’ group.
The offspring of the F0 generation were the F1 generation. Likewise F2 and F3 generation offspring were generated. These rats were weaned from their mothers at 21 days of age. At weaning, the following weaning traits were measured; litter size, sex ratio, weaning weight (in grams), and anogenital index (AGI). […] Weaning weights of rats were measured by a digital balance. AGI was computed as the AGD in mm (from the bottom of the anal opening to the top of the genital opening) per gram of body weight at weaning. Starting at the age of 30 days for females and 35 days for males, puberty checks were performed. These checks were performed on a daily basis until puberty in each rat was confirmed. Onset of puberty for females was indicated by a clear vaginal opening, and for males it was indicated when the glans penis was able to fully extend free of the preputial fold (balano-preputial separation).

Data set [2] is described as follows: Serum hormone levels, F3 generation. In kind it is in vivo, rat. The note with it: F3 generation males. On the procedure:
Both female and male rats of F1, F2 and F3 generation at 90-120 days of age were euthanized by CO2 inhalation and cervical dislocation for dissection, collection and examination of tissues including testis, epididymis, and ovary. Body and tissue weights were measured at dissections. Blood samples were collected, allowed to clot, centrifuged and serum samples stored for hormone assays. Tissues were fixed in Bouins solution (Sigma) and 70% ethanol, then processed for paraffin embedding by standard procedures for histopathology examination. Five-micrometer sections were made and were either unstained or stained with H & E stain.

In data set [3] the test system is sperm promoter epigenome (DNA methylation). The data set is described as follows: MeDIP-Chip analysis of F3 generation sperm promoter DNA methylation. Format: in vivo, rat. Conditions: F3 generation sperm vs vehicle control; p<10^-5. The procedure: Sperm heads were separated from tails through sonication following previously described protocol (without protease inhibitors) and then purified using a series of washes and centrifugations from a total of nine F3 generation rats per treatment lineage that were 120 days of age. DNA extraction on the purified sperm heads was performed as previously described. Equal concentrations of DNA from individual sperm samples were then used to produce pools of DNA material. Three DNA pools were produced in total per treatment, which contained the same amount of sperm DNA from three animals. Therefore a total of 45 animals were used for building three DNA pools per treatment for the 4 experimental groups plus controls. These DNA pools were then used for methylated DNA immunoprecipitation (MeDIP). MeDIP was performed as follows: 6 μg of genomic DNA was subjected to series of three 20 pulse sonications at 20% amplitude and the appropriate fragment size ([…]) was verified through 2% agarose gels; the sonicated genomic DNA was resuspended in 350 ul TE and denaturated for 10 min at 95° C. and then immediately placed on ice for 5 min; 100 ul of 5×IP buffer (50 mM Na-phosphate pH7, 700 mM NaCl, 0.25% Triton X-100) was added to the sonicated and denatured DNA. […]

For data set [4], the system named is testicular spermatogenic cells. The data set is described as follows: Testicular spermatogenic cell apoptosis (TUNEL assay), F1-F3 lineage after F0 gestational exposure. Format: in vivo, mouse. Conditions: 129 strain, flutamide 20 mg/kg/day IP to F0 E7-E13; any age or generation analyzed; vs control. On the procedure:
(§1) The experimental design involved exposing gestating female inbred 129 strain and outbred CD-1 strain mice to daily intraperitoneal (IP) injections of vehicle (DMSO) (control) or vinclozolin at two doses, 100 mg/kg/day (V1) or 200 mg/kg/day (V2), between embryonic day 7-13 of gestation. In addition, a comparison was used with flutamide IP injections at a 20/mg/kg/day dose. The F1 generation males and females from different litters were bred to generate the F2 generation animals and F2 generation males and females from different litters were bred to generate the F3 generation animals, see Methods below. No sibling or cousin breedings occurred to avoid any inbreeding artifacts. Selected F1, F2 and F3 generation animals from postnatal 90 (P90) or 300 (P300) days of age were analyzed for testis, sperm and other pathologies as previously described.^11, 20, 21
Timed pregnant inbred 129 mice were given intraperitoneal injections with vinclozolin (100 mg/kg·day, 99% pure; ChemService, West Chester, Pa.), flutamide (20 mg/kg·day, Sigma, St. Louis, Mo.) or DMSO in sesame oil (vehicle) as controls, while timed pregnant outbred CD-1 mice were given intraperitoneal injections (IP) with vinclozolin doses: 100 mg/kg·day (V1) or 200 mg/kg·day (V2) or DMSO in sesame oil as controls.^21 Mice were given injections from embryonic day (E) E7-E13, with plug date equal to day 0. Controls were injected with vehicle (DMSO) dose and were matched with vinclozolin or flutamide treatment animals within the same mouse strain at the time of injection and were analyzed together throughout all three generations. […] Male mice were collected and analyzed between P60-P90 (P90) for all generations and treatment groups. […]

Data set [5] concerns caudal epididymal sperm. The data set can be described thus: Epididymal sperm motility and concentration analyses. Format: in vivo, mouse. Conditions: primarily in the F1 generation males. On the procedure: The sperm motility was determined using caudal epididymal sperm. The epididymis was dissected free of connective tissue and a small cut made to the cauda. The tissue was placed in 2 ml F12 culture medium containing 0.1% BSA for 10 minutes at 37° C. Fifty microliters was placed on a warm slide and gently cover-slipped. The specimen was immediately examined using phase contrast microscopy with 200×magnification. The sperm motility assays examined rapid progressive, slow progressive and non-progressive motility according to WHO category.^51 The ratio of motile sperm to the total number of sperm, including immotile sperm, was calculated. Approximately 50-100 sperm were counted per microscopic field. The procedure was repeated at least twice with a new specimen from the same epididymis. Epididymal sperm count was determined using the same epididymis according to a previously described method with some modifications.^25, 52 Briefly, the epididymis that was placed in the 2 ml of culture medium was minced. The tissue pieces were stored at 4° C. for 48 hours to immobilize the sperm. Three independent sperm samples were counted using a hemocytometer. The counts were averaged and used as a replicate in statistical analysis. The control and vinclozolin generation analysis and the control and flutamide generation analysis for an individual experiment were done at the same time. All analyses were done blinded, such that different individuals were used for collection and counting.

Data set [6] deals with 129 and CD-1 mice. The data set is described as follows: Litter size, sex ratio, body and tissue weights (toxicity). In kind it is in vivo, mouse. The note with it: transient embryonic exposure. On the procedure: as §1
Timed pregnant inbred 129 mice were given intraperitoneal injections with vinclozolin (100 mg/kg·day, 99% pure; ChemService, West Chester, Pa.), flutamide (20 mg/kg·day, Sigma, St. Louis, Mo.) or DMSO in sesame oil (vehicle) as controls, while timed pregnant outbred CD-1 mice were given intraperitoneal injections (IP) with vinclozolin doses: 100 mg/kg·day (V1) or 200 mg/kg·day (V2) or DMSO in sesame oil as controls.^21 Mice were given injections from embryonic day (E) E7-E13, with plug date equal to day 0. Controls were injected with vehicle (DMSO) dose and were matched with vinclozolin or flutamide treatment animals within the same mouse strain at the time of injection and were analyzed together throughout all three generations. The number of treated gestating females used were: for mouse 129 strain (3 controls and 4 vinclozolin treated); for mouse 129 strain flutamide 20 mg/kg/day dose (3 controls and 3 flutamide treated); and for mouse CD-1 strain (4 control and 3 vinclozolin treated (100 mg/kg/day (V1), 3 vinclozolin 200 mg/kg/day (V2)). F1 postnatal (P)P90 males and females from different litters of control, vinclozolin and flutamide treatment groups were bred to generate the F2 generation. F2 generation mice were bred to generate the F3 generation. Breedings were carefully monitored to eliminate any sibling or cousin breeding to remove potential phenotypes as a result of inbreeding. Male mice were collected and analyzed between P60-P90 (P90) for all generations and treatment groups. The number of P90 males collected for replicates for the mouse 129 strain vinclozolin treatment group (i.e. n value) were: for F1 (8 control, 11 vinclozolin); for F2 (11 control, 22 vinclozolin); and for F3 (11 control, 11 vinclozolin). […]

Setting [7] is: transgenerational F3 generation.

Consider two molecules from patent US9734283B2, “Genomic features associated with epigenetic control regions and transgenerational inheritance of epimutations” (priority 2011, dated 2017).

Entries after “also recorded” stand apart in the source; their conditions may differ.

With `Clc1cc2c(cc1Cl)Oc1cc(Cl)c(Cl)cc1O2` [dioxin, 2,3,7,8-tetrachlorodibenzo-p-dioxin], in data set [1] (F2 generation), the “onset of puberty for females” value is given as “early onset” and the “onset of puberty in males” value is listed as “early onset”. In data set [1] (setting [7]), the “onset of puberty in females” value is given as “early onset; also recorded: advanced” and the “onset of puberty in males” value is on record as “no effect”. In addition, the testosterone levels entry in data set [2] is on record as “reduction”. In addition, the “number of DMR” value in data set [3] came to 50.
`CC(C)C(=O)Nc1ccc([N+](=O)[O-])c(C(F)(F)F)c1` [flutamide]: the “apoptotic germ cells in the testis” value in data set [4] is listed as “no differences”. In data set [5], the “mean percentage of motile epididymal sperm” value is “reduction”. The “body weight, testis weight index, or kidney weight index” value in data set [6] (F1-F3) is reported as “no consistent transgenerational differences”. Moreover, the “litter size or male/female sex ratio” value in data set [6] (all generations analyzed) is recorded as “no consistent transgenerational effects”.
